# Source: PMC4917448 (Journal of biomolecular screening, 2016)
# “Also recorded” adds a separate entry of the source.
# Legend:
# [1] = tested on: HDAC I/II; experiment: HDAC-Glo I/II assay in HCT116 cells; type: cell-based, human; settings: for HDAC-Glo: Efficacy, HCT116 / Efficacy, HDAC-Glo I/II HCT116 assay: maximal response
# [2] = tested on: HDAC I/II; experiment: HDAC-Glo I/II assay in human neural stem cells; type: cell-based; settings: cherry-pick confirmation; for HDAC-Glo: Efficacy, hNSC: maximal response; for IC50: read-out: HDAC-Glo: IC50, hNSC, 11 concentrations, 1 hour
# [3] = CellTiter-Glo cell viability assay in hNSC; type: cell-based, human; settings: human, human neural stem cells (hNSC)
# [4] = tested on: human neural stem cells; experiment: CellTiter-Glo cell viability assay in hNSC; type: cell-based; settings: for IC50: Homo sapiens, Neural stem cell, 1 h, read-out: Viability: IC50, hNSC
# [5] = CellTiter-Glo cell viability assay in HCT116; type: cell-based, human; settings: human, HCT116 cells
# [6] = tested on: HCT116 cells; experiment: CellTiter-Glo cell viability assay in HCT116; type: cell-based, human; settings: for IC50: Homo sapiens, HCT-116, 1 h, read-out: Viability: IC50, HCT116
# [7] = target: HDAC3 (Homo sapiens, UniProt O15379); experiment: Fluorogenic isoform-specific HDAC assay, HDAC3; type: biochemical
# [8] = target: HDAC1 (Homo sapiens, UniProt Q13547); experiment: Fluorogenic isoform-specific HDAC assay, HDAC1; type: biochemical
# [9] = target: HDAC2 (Homo sapiens, UniProt Q92769); experiment: Fluorogenic isoform-specific HDAC assay, HDAC2; type: biochemical
# [10] = target: HDAC4 (Homo sapiens, UniProt P56524); experiment: Fluorogenic isoform-specific HDAC assay, HDAC4; type: biochemical
# [11] = target: HDAC5 (Homo sapiens, UniProt Q9UQL6); experiment: Fluorogenic isoform-specific HDAC assay, HDAC5; type: biochemical
# [12] = target: T1, HDAC6 (Homo sapiens, UniProt Q9UBN7); experiment: Fluorogenic isoform-specific HDAC assay, HDAC6; type: biochemical
# T1 sequence (Q9UBN7 1-1215): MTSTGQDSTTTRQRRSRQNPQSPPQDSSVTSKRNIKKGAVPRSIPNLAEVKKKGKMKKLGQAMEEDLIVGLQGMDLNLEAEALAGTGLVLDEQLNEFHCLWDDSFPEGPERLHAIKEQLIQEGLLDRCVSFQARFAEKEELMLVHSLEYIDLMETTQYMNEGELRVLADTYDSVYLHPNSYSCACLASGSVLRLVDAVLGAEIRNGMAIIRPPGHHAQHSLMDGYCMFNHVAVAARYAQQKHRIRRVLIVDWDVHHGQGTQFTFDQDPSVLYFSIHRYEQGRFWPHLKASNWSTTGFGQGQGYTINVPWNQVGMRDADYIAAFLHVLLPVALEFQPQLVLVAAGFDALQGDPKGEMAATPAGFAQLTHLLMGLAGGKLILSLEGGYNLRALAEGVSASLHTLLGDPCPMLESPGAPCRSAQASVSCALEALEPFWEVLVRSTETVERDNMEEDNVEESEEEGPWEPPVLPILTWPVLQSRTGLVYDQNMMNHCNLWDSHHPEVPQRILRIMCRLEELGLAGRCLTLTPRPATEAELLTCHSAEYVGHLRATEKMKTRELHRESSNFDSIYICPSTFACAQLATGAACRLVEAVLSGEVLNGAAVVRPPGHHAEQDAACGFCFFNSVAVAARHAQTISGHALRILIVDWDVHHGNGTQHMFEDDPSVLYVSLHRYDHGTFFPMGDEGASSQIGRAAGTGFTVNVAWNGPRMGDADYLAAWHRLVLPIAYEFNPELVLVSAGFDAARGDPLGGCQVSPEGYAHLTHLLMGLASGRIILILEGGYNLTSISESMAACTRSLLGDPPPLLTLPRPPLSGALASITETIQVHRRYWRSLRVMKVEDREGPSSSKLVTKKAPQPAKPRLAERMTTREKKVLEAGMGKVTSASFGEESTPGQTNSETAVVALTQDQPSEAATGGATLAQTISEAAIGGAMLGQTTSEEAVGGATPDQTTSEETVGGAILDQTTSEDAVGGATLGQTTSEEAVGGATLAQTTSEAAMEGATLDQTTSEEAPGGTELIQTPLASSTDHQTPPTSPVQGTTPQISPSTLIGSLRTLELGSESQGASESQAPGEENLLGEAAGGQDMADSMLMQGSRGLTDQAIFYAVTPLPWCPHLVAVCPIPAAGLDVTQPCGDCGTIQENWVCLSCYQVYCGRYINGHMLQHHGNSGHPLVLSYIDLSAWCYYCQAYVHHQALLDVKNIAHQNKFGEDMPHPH
# [13] = target: T2, HDAC8 (Homo sapiens, UniProt Q9BY41); experiment: Fluorogenic isoform-specific HDAC assay, HDAC8; type: biochemical
# T2 sequence (Q9BY41 1-377): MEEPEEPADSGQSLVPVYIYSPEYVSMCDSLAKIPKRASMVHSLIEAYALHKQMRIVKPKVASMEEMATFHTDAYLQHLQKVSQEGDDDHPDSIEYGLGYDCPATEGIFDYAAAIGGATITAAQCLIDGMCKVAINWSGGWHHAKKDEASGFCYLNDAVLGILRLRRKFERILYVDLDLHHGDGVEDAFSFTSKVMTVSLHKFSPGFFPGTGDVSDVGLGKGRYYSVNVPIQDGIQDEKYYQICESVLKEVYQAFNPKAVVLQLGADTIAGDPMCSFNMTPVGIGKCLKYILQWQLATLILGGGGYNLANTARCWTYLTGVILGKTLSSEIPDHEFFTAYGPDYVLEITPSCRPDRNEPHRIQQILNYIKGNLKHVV
# [14] = target: HDAC9 (Homo sapiens, UniProt Q9UKV0); experiment: Fluorogenic isoform-specific HDAC assay, HDAC9; type: biochemical
# [15] = tested on: class I and II HDAC enzymes; experiment: Panel of fluorogenic assays against ten class I and II HDAC isoforms; type: biochemical, human; settings: red-shifted versions of fluorogenic assays, Figure 4A, 4B
# [16] = read-out: HDAC-Glo: IC50, HCT116, cherry-pick confirmation, 11 concentrations, 1 hour
# [17] = read-out: IC50, HDAC-Glo I/II HCT116 assay, powder confirmation
# [18] = cherry-pick confirmation, 1 hour
# Chain of HDAC3 (O15379 whole entry, canonical isoform): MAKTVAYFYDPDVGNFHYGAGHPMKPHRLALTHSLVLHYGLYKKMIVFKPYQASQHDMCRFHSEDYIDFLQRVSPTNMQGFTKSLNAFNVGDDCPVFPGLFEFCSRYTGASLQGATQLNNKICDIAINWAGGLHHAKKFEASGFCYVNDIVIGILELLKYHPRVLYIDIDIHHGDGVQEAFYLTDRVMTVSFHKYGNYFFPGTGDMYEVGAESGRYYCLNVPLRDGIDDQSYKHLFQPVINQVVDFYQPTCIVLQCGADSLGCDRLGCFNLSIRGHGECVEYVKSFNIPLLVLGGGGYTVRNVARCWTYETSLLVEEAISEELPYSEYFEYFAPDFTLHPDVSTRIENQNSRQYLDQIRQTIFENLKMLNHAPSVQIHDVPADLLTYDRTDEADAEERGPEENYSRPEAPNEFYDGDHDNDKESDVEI
# Chain of HDAC3 (Q9Y618 395-489 partner limits assumed): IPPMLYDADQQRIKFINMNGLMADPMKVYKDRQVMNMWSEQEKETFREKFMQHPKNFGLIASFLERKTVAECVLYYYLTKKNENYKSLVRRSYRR
# Chain of HDAC2 (Q92769 whole entry, canonical isoform): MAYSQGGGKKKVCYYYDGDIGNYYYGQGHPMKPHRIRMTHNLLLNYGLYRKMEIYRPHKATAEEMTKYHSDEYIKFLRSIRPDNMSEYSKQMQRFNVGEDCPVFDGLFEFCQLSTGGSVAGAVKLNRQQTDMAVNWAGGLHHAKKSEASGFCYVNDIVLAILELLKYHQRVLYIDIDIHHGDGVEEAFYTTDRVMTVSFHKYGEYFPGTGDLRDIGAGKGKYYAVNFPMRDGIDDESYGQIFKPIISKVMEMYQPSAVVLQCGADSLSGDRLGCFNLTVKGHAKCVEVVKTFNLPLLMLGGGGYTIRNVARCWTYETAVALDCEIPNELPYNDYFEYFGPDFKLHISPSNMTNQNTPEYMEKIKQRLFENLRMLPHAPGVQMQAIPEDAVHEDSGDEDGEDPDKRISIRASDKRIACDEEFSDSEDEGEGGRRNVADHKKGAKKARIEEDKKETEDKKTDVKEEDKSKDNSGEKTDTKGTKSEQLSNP
# Chain of HDAC9 (Q9UKV0 whole entry, canonical isoform): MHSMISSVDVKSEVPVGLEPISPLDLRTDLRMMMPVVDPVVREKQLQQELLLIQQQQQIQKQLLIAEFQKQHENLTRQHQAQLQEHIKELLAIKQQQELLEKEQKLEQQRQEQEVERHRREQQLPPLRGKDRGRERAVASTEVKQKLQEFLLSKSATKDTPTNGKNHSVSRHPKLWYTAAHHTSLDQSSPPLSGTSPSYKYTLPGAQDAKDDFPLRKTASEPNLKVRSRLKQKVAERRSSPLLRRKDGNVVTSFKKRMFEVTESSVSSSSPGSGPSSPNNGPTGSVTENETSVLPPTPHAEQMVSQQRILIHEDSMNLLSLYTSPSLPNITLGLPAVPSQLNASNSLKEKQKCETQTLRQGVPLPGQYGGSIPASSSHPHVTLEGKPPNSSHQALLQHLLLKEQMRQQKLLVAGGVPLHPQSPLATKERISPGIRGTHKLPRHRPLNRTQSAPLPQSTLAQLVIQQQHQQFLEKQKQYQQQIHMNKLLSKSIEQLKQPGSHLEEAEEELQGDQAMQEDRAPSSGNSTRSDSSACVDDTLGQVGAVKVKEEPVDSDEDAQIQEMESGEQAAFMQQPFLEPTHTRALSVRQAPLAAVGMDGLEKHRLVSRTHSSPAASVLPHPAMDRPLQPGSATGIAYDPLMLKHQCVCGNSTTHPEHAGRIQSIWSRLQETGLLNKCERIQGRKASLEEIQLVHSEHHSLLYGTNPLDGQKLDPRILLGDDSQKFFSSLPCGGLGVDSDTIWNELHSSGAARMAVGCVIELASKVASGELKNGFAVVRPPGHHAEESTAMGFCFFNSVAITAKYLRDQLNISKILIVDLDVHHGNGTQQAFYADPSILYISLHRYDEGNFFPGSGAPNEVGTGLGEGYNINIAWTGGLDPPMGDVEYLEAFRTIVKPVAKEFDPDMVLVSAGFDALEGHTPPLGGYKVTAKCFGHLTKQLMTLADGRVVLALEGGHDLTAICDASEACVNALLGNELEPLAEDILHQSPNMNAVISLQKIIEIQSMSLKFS
# Chain of HDAC1 (Q13547 whole entry, canonical isoform): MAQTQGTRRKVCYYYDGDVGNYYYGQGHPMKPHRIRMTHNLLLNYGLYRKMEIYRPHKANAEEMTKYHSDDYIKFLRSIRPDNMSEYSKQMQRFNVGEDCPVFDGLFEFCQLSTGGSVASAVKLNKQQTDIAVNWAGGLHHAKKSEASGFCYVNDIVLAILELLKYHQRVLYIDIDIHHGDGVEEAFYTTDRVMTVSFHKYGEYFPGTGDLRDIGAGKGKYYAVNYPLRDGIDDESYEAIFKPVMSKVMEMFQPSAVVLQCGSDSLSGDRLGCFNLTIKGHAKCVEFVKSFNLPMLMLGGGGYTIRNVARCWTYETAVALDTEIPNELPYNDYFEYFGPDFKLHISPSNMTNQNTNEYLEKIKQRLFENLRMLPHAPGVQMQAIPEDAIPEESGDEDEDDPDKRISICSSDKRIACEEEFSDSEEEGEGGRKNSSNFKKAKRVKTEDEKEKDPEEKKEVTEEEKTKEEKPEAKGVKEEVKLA
# Chain of HDAC4 (P56524 whole entry, canonical isoform): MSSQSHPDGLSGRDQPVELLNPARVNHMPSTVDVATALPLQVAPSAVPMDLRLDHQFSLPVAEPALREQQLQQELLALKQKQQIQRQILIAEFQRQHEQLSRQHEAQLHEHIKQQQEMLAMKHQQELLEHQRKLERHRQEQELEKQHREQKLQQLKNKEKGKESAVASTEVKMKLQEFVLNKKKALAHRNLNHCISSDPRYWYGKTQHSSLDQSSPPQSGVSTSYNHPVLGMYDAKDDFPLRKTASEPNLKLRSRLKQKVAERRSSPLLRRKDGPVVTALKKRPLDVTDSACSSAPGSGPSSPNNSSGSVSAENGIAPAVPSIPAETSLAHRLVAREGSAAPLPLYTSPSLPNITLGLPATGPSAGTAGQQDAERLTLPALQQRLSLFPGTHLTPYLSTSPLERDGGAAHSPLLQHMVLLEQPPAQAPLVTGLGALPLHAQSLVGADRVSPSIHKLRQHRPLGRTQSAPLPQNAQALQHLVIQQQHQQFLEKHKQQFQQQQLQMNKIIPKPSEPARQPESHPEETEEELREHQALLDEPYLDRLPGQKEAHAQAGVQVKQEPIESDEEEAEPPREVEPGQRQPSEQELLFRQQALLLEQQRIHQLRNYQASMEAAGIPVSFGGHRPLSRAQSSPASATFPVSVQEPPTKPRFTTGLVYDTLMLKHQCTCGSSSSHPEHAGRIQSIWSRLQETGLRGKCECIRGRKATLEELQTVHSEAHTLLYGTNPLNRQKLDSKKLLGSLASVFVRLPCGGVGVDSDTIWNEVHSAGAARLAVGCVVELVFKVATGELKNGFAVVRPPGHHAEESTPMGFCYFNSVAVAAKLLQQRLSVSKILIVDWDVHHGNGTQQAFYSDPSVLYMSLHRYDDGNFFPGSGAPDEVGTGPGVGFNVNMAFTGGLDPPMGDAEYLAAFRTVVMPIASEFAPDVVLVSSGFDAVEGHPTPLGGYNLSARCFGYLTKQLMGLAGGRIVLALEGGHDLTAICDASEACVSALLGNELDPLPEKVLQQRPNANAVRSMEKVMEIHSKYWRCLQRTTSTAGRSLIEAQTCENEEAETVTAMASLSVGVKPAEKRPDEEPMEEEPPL
# Chain of HDAC5 (Q9UQL6 whole entry, canonical isoform): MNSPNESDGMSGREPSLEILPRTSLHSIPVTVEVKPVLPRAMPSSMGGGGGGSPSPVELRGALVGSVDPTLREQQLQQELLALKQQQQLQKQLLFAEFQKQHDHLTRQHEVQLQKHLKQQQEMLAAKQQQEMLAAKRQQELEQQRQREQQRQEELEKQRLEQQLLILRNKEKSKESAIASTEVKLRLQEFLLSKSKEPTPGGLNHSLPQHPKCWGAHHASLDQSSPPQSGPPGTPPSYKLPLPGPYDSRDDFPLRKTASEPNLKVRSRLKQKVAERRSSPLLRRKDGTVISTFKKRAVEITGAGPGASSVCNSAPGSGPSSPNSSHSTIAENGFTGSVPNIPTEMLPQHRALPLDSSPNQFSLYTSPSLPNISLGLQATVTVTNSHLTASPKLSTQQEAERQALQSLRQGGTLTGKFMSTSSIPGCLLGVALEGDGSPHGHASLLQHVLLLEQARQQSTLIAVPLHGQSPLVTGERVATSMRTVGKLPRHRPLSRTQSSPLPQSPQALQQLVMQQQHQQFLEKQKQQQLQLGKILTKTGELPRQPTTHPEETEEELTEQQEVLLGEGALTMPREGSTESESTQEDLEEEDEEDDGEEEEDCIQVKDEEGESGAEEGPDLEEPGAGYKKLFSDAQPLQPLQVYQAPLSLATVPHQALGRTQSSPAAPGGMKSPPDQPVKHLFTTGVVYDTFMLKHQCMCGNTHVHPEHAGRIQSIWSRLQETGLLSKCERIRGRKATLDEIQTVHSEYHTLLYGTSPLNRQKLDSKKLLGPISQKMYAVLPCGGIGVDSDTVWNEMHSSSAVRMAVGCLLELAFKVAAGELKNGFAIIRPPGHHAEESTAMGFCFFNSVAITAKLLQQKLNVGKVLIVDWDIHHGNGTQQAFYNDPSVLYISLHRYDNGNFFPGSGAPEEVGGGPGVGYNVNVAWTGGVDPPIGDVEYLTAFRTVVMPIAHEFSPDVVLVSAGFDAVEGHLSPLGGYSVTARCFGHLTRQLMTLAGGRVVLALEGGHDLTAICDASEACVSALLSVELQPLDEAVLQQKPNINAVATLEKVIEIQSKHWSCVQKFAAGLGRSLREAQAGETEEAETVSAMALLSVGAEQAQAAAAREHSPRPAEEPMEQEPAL
"IC50 [1, 16]",IC50 [2],SMILES,"HDAC-Glo: Efficacy, HCT116 ([1]; cherry-pick confirmation)","HDAC-Glo: Efficacy, hNSC [2]",viability at 1 h [3],IC50 [4],viability at 1 h [5],IC50 [6],"Efficacy, HDAC-Glo I/II HCT116 assay ([1]; powder confirmation)","IC50 [1, 17]",other results
830 nM,800 ± 50 nM,"O=C(O)c1cccc(-c2noc(-c3ccccc3F)n2)c1 [Ataluren (PTC-124), Ataluren]",111 ± 4%,109 ± 3%,86 ± 60.2%,14300 ± 930 nM,103%,14400 ± 2450 nM,–,–,–
1110 ± 250 nM,360 ± 140 nM,N=C(N)c1ccc2cc(OC(=O)c3ccc(N=C(N)N)cc3)ccc2c1 [Nafamostat],116 ± 3%,108 ± 1%,–,–,–,–,99 ± 0%,120 ± 30 nM,"inhibition of HDAC-Glo I/II luminescence signals ([2]; hNSCs, Figure 2): completely inhibited; Viability: IC50, hNSC [4, 18]: Inactive; Viability: IC50, HCT116 [6, 18]: Inactive; IC50 [8]: 4670 nM; IC50 [9]: 4690 nM; IC50 [7]: 4040 nM; IC50 [10]: 1490 nM; IC50 [11]: 1330 nM; IC50 [12]: 4390 nM; IC50 [13]: 1520 nM; IC50 [14]: 1550 nM; isoform selectivity [15]: more selective in inhibiting HDAC4, HDAC5, and HDAC8 than other HDAC isoforms"

SMILES,"IC50 [1, 16]",IC50 [2],"HDAC-Glo: Efficacy, HCT116 ([1]; cherry-pick confirmation)","HDAC-Glo: Efficacy, hNSC [2]",viability at 1 h [3],IC50 [4],viability at 1 h [5],IC50 [6],"Efficacy, HDAC-Glo I/II HCT116 assay ([1]; powder confirmation)","IC50 [1, 17]",other results
O=S(=O)(O)c1ccc2[nH]c(-c3ccccc3)nc2c1 [Ensulizole],6130 ± 3060 nM,1940 ± 970 nM,116 ± 5%,111 ± 1%,58%,16000 ± 1040 nM,70%,13400 ± 2800 nM,98 ± 0%,1660 ± 730 nM,inhibition of HDAC3 (in words) ([7]; 20 μM): selectively inhibited; also recorded: selective to HDAC3
